Patent US10703748B2, “Diazanaphthalen-3-yl carboxamides and preparation and use thereof” (Samumed, LLC, priority 2017, dated 2020)
pEC50: −log10 of the molar value.

Key:
DYRK1A kinase = DYRK1A kinase (Homo sapiens, UniProt Q13627); assay: DYRK1A kinase activity (Ser/Thr 18 peptide Z-lyte FRET assay); format: biochemical; conditions: recombinant DYRK1A, 30 μM ATP, one hour at room temperature;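 note: kinase activity read as coumarin/fluorescein emission ratio after development step, with unphosphorylated and phosphorylated peptide forms setting 0% and 100% controls, values from dose-response curves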
GSK3β kinase = GSK3β kinase (Homo sapiens, UniProt P49841); assay: GSK3β kinase activity (Ser/Thr 09 peptide Z-lyte FRET assay); format: biochemical; conditions: recombinant kinase, 46 μM ATP, one hour at room temperature; read-out: EC50
Chain of GSK3β kinase (P49841 whole entry): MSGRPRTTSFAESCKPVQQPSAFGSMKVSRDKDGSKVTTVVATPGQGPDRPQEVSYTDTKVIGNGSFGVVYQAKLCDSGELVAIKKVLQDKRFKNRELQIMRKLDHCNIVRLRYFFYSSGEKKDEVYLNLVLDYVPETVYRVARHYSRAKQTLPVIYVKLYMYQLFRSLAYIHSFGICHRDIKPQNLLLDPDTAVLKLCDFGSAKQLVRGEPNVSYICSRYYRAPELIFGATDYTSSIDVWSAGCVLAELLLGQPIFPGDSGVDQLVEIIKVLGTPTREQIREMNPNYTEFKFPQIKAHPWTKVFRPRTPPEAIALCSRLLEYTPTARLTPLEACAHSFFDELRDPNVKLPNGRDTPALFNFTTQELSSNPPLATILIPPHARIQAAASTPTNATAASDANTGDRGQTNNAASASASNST

[1] = test system: secreted cytokines TNFα, IL-6 and KC-GRO; assay: Secreted cytokines in Lipopolysaccharide-stimulated BV-2 cells (Table 9 does not say which cytokine); format: cell-based, mouse; conditions: Mus musculus, BV-2, 5 h; read-out: EC50
[2] = test system: SW480 colon carcinoma cells; assay: Cell viability assay (CellTiter-Glo); conditions: Homo sapiens; for pEC50: SW480, 96 h; for inhibition at 10 µM: SW480, read-out: percent inhibition at 10 μM
[3] = test system: Wnt-responsive Sp5-Luc reporter in SW480 colon carcinoma cells; assay: Screening assay for Wnt activity (Sp5-Luc reporter gene assay); conditions: Homo sapiens; for pEC50: SW480; for inhibition at 10 µM: SW480, read-out: percent inhibition at 10 μM
IL-6 = IL-6 inhibition in LPS-stimulated human peripheral blood mononuclear cells (HTRF); conditions: Homo sapiens, PBMC; for pEC50: 22 h; for inhibition at 10 µM: read-out: percentage in parentheses after EC50 >10
Procedure: Each compound was dissolved in DMSO (Catalog # D8418-100 ml, Sigma-Aldrich, St. Louis, Mo.) as a 10 mM stock and used to prepare compound source plates. […] After 22 hour incubation, a mixture of anti-IL6 XL665 and anti-IL-6 Cryptate diluted in reconstitution buffer (Catalog #62IL6PEC, Cisbio Inc., Bedford, Mass.) was added to each well. […] All samples were processed in duplicate. […] EC50 was determined using software generated by Dotmatics Limited (Windhill Bishops Stortford Herts, UK) using the Levenberg-Marquardt 4 parameter fitting procedure with finite different gradients.

[4] = test system: α-smooth muscle actin (aSMA) positive LL29 cells; assay: Inhibition of the fibrotic process: αSMA staining in TGF-β1 treated LL29 fibroblasts from IPF patients; conditions: Homo sapiens, Fibroblast; for pEC50: 96 h; for inhibition at 10 µM: read-out: percentage in parentheses after EC50 >10

| SMILES | pEC50 (DYRK1A kinase) | pEC50 (GSK3β kinase) | pEC50 [1] | pEC50 [2] | inhibition at 10 µM [2] | pEC50 [3] | inhibition at 10 µM [3] | pEC50 (IL-6) | inhibition at 10 µM (IL-6) | pEC50 [4] | inhibition at 10 µM [4] |
| --- | --- | --- | --- | --- | --- | --- | --- | --- | --- | --- | --- |
| O=C(Nc1cc2nc(-c3cncc(NC4CCNCC4)n3)ccc2cn1)C1CCOCC1 [Compound 877, N-(2-(6-(Piperidin-4-ylamino)pyrazin-2-yl)-1,6-naphthyridin-7-yl)tetrahydro-2H-pyran-4-carboxamide] | 7.80 | 5.00 | 5.57 | < 5.00 | 11.7% | < 5.00 | 0% | < 5.00 | 6.8% | < 5.00 | 23.6% |
| CN1CCC(n2cc(C(=O)Nc3cc4nc(-c5cncc6[nH]ccc56)ccc4cn3)cn2)CC1 [Compound 896, N-(2-(1H-Pyrrolo[2,3-c]pyridin-4-yl)-1,6-naphthyridin-7-yl)-1-(1-methylpiperidin-4-yl)-1H-pyrazole-4-carboxamide] | 8.30 | < 5.00 | 6.58 | 6.96 | – | 6.92 | – | 5.77 | – | 6.47 | – |
| CN1CCN(c2cccc(C(=O)Nc3ncc4ccc(-c5cnn(C)c5)cc4n3)c2)CC1 [Compound 1047, N-(7-(1-Methyl-1H-pyrazol-4-yl)quinazolin-2-yl)-3-(4-methylpiperazin-1-yl) benzamide] | 8.10 | 6.18 | 6.11 | 5.07 | – | 6.24 | – | 5.43 | – | 5.71 | – |
| CN1CCN(c2cc(C(=O)Nc3ncc4ccc(-c5cnn(C)c5)cc4n3)ccn2)CC1 [Compound 1054, N-(7-(1-Methyl-1H-pyrazol-4-yl)quinazolin-2-yl)-2-(4-methylpiperazin-1-yl) isonicotinamide] | 8.10 | 5.44 | 5.92 | 6.14 | – | 6.33 | – | 5.41 | – | 5.63 | – |
| CN1CCN(c2ccc(C(=O)Nc3ncc4ccc(-c5cnn(C)c5)cc4n3)cn2)CC1 [Compound 1058, N-(7-(1-Methyl-1H-pyrazol-4-yl)quinazolin-2-yl)-6-(4-methylpiperazin-1-yl)nicotinamide] | 8.05 | 5.50 | 6.54 | 5.03 | – | 5.67 | – | < 5.00 | 3% | < 5.00 | 8.8% |
| Cn1cc(-c2ccc3cnc(NC(=O)c4ccnc(OC5CCNCC5)c4)nc3c2)cn1 [Compound 1060, N-(7-(1-Methyl-1H-pyrazol-4-yl)quinazolin-2-yl)-2-(piperidin-4-yloxy)isonicotinamide] | 7.57 | < 5.00 | 6.55 | 5.16 | – | 5.45 | – | < 5.00 | 4.9% | < 5.00 | 28.6% |
| CN(C)CCNc1cc(C(=O)Nc2ncc3ccc(-c4cnn(C)c4)cc3n2)ccn1 [Compound 1071, 2-((2-(Dimethylamino)ethyl)amino)-N-(7-(1-methyl-1H-pyrazol-4-yl)quinazolin-2-yl)isonicotinamide] | 8.00 | < 5.00 | 5.74 | 5.46 | – | 5.82 | – | < 5.00 | 11.8% | 5.16 | – |
| CN(C)Cc1ccc(C(=O)Nc2ncc3ccc(-c4cnn(C)c4)cc3n2)cc1 [Compound 1077, 4-((Dimethylamino)methyl)-N-(7-(1-methyl-1H-pyrazol-4-yl)quinazolin-2-yl)benzamide] | 7.80 | 5.38 | 6.69 | 5.47 | – | 5.96 | – | 5.04 | – | 5.41 | – |
| CN1CCN(Cc2cccc(C(=O)Nc3ncc4ccc(-c5cnn(C)c5)cc4n3)c2)CC1 [Compound 1079, N-(7-(1-Methyl-1H-pyrazol-4-yl)quinazolin-2-yl)-3-((4-methylpiperazin-1-yl)methyl)benzamide] | 7.72 | 5.01 | 5.85 | 5.47 | – | 6.00 | – | < 5.00 | 12.7% | < 5.00 | 14.3% |
| CN1CCc2ccc(C(=O)Nc3ncc4ccc(-c5cnn(C)c5)cc4n3)cc2C1 [Compound 1109, 2-Methyl-N-(7-(1-methyl-1H-pyrazol-4-yl)quinazolin-2-yl)-1,2,3,4-tetrahydroisoquinoline-7-carboxamide] | 7.74 | < 5.00 | 6.46 | 5.02 | – | 5.72 | – | < 5.00 | 6.3% | < 5.00 | 16.4% |
| Cn1cc(-c2ccc3cnc(NC(=O)c4ccc5ccoc5c4)nc3c2)cn1 [Compound 1116, N-(7-(1-Methyl-1H-pyrazol-4-yl)quinazolin-2-yl)benzofuran-6-carboxamide] | 7.82 | < 5.00 | 6.02 | 5.52 | – | 6.10 | – | < 5.00 | 3.8% | 5.57 | – |
| Cn1cc(-c2ccc3cnc(NC(=O)c4ccc5nccnc5c4)nc3c2)cn1 [Compound 1123, N-(7-(1-Methyl-1H-pyrazol-4-yl)quinazolin-2-yl)quinoxaline-6-carboxamide] | 7.89 | 5.32 | 6.00 | 5.21 | – | 5.71 | – | < 5.00 | 6.5% | < 5.00 | 22% |
| CN1CCC(n2cc(C(=O)Nc3ncc4ccc(-c5cnn(C)c5)cc4n3)cn2)CC1 [Compound 1136, N-(7-(1-Methyl-1H-pyrazol-4-yl)quinazolin-2-yl)-1-(1-methylpiperidin-4-yl)-1H-pyrazole-4-carboxamide] | 7.89 | 5.60 | 6.26 | 5.54 | – | 6.49 | – | 5.50 | – | 5.84 | – |
| CC(C)OC(=O)N1CCC(n2cc(C(=O)Nc3ncc4ccc(-c5cnn(C)c5)cc4n3)cn2)CC1 [Compound 1141, Isopropyl 4-(4-((7-(1-methyl-1H-pyrazol-4-yl)quinazolin-2-yl)carbamoyl)-1H-pyrazol-1-yl)piperidine-1-carboxylate] | 8.10 | 5.39 | 6.75 | 6.14 | – | 6.38 | – | 5.50 | – | 5.86 | – |
| CN1CCN(c2cc(C(=O)Nc3ncc4ccc(-c5cnn(C)c5N)cc4n3)ccn2)CC1 [Compound 1210, N-(7-(5-Amino-1-methyl-1H-pyrazol-4-yl)quinazolin-2-yl)-2-(4-methylpiperazin-1-yl)isonicotinamide] | 8.40 | < 5.00 | 5.96 | 6.16 | – | 6.32 | – | 5.44 | – | 5.85 | – |
| Cn1ncc(-c2ccc3cnc(NC(=O)c4ccnc(N5CCOCC5)c4)nc3c2)c1CN1CCOCC1 [Compound 1220, N-(7-(1-Methyl-5-(morpholinomethyl)-1H-pyrazol-4-yl)quinazolin-2-yl)-2-morpholinoisonicotinamide] | 7.72 | 5.25 | 6.06 | 5.28 | – | 5.74 | – | < 5.00 | 0% | < 5.00 | 5.5% |
| CN(C)C1CCN(c2cc(C(=O)Nc3ncc4ccc(-c5cn(C)nn5)cc4n3)ccn2)CC1 [Compound 1282, 2-(4-(Dimethylamino)piperidin-1-yl)-N-(7-(1-methyl-1H-1,2,3-triazol-4-yl)quinazolin-2-yl)isonicotinamide] | 8.10 | 6.34 | 6.00 | 5.87 | – | 6.13 | – | < 5.00 | 42.4% | 5.60 | – |
| CN1CCCN(c2cc(C(=O)Nc3ncc4ccc(-c5cn(C)nn5)cc4n3)ccn2)CC1 [Compound 1285, 2-(4-Methyl-1,4-diazepan-1-yl)-N-(7-(1-methyl-1H-1,2,3-triazol-4-yl)quinazolin-2-yl)isonicotinamide] | 7.89 | 6.08 | 5.17 | 5.50 | – | 5.78 | – | < 5.00 | 2.1% | < 5.00 | 5.5% |
| Cn1cnnc1-c1ccc2cnc(NC(=O)C3CCN(CCC(F)(F)F)CC3)nc2c1 [Compound 1297, N-(7-(4-Methyl-4H-1,2,4-triazol-3-yl)quinazolin-2-yl)-1-(3,3,3-trifluoropropyl)piperidine-4-carboxamide] | 7.24 | 7.42 | ≤ 5.00 | < 5.00 | 35.1% | < 5.00 | 39.2% | < 5.00 | 4.3% | < 5.00 | 42.1% |
| Cc1ncc(C(=O)Nc2ncc3ccc(-c4cnc(C)n4C)cc3n2)s1 [Compound 1353, N-(7-(1,2-Dimethyl-1H-imidazol-5-yl)quinazolin-2-yl)-2-methylthiazole-5-carboxamide] | 7.96 | 5.87 | 6.09 | 5.35 | – | 5.66 | – | < 5.00 | 4.1% | < 5.00 | 42% |
